Assay results: ChEMBL document CHEMBL5724914, “Linking interpersonal differences in gut microbiota composition and drug biotransformation activity” (2024)

Experiments:
[1] = The drug is tested on Z-012 corresponding to metagenome with ENA study accession number: PRJEB37062 and ENA sample accession number: ERS12561812 for biotransformation under anaerobic condition. The drug concentrations were measured over 9 timepoints collected between 0 and 24 hours of incubation by liquid-chromatography-coupled mass spectrometry (LC–MS); conditions: 2 µM
[2] = human gut metagenome, 24 h, 2 µM
[3] = human gut metagenome, 24 h, 2 µM; remark: listed apart in the source
[4] = human gut metagenome, 24 h, 2 µM; remark: listed apart in the source
[5] = human gut metagenome, 24 h, 2 µM; remark: listed apart in the source
[6] = human gut metagenome, 24 h, 2 µM; remark: listed apart in the source
[7] = human gut metagenome, 24 h, 2 µM; remark: listed apart in the source
[8] = The drug is tested on Z-005 corresponding to metagenome with ENA study accession number: PRJEB37062 and ENA sample accession number: ERS12561805 for biotransformation under anaerobic condition. The drug concentrations were measured over 9 timepoints collected between 0 and 24 hours of incubation by liquid-chromatography-coupled mass spectrometry (LC–MS); conditions: 2 µM
[9] = human gut metagenome, 24 h, 2 µM; remark: listed apart in the source
[10] = human gut metagenome, 24 h, 2 µM; remark: listed apart in the source
[11] = human gut metagenome, 24 h, 2 µM; remark: listed apart in the source
[12] = human gut metagenome, 24 h, 2 µM; remark: listed apart in the source
[13] = The drug is tested on Z-002 corresponding to rabbit gut metagenome with ENA study accession number: PRJEB37062 and ENA sample accession number: ERS12561802 for biotransformation under anaerobic condition. The drug concentrations were measured over 9 timepoints collected between 0 and 24 hours of incubation by liquid-chromatography-coupled mass spectrometry (LC–MS); conditions: 2 µM
[14] = The drug is tested on Z-019 corresponding to rat gut metagenome with ENA study accession number: PRJEB37062 and ENA sample accession number: ERS12561818 for biotransformation under anaerobic condition. The drug concentrations were measured over 9 timepoints collected between 0 and 24 hours of incubation by liquid-chromatography-coupled mass spectrometry (LC–MS); conditions: 2 µM
[15] = The drug is tested on Z-023 corresponding to metagenome with ENA study accession number: PRJEB37062 and ENA sample accession number: ERS12561822 for biotransformation under anaerobic condition. The drug concentrations were measured over 9 timepoints collected between 0 and 24 hours of incubation by liquid-chromatography-coupled mass spectrometry (LC–MS); conditions: 2 µM
[16] = The drug is tested on Z-021 corresponding to metagenome with ENA study accession number: PRJEB37062 and ENA sample accession number: ERS12561820 for biotransformation under anaerobic condition. The drug concentrations were measured over 9 timepoints collected between 0 and 24 hours of incubation by liquid-chromatography-coupled mass spectrometry (LC–MS); conditions: 2 µM
[17] = The drug is tested on Z-006 corresponding to mouse gut metagenome with ENA study accession number: PRJEB37062 and ENA sample accession number: ERS12561806 for biotransformation under anaerobic condition. The drug concentrations were measured over 9 timepoints collected between 0 and 24 hours of incubation by liquid-chromatography-coupled mass spectrometry (LC–MS); conditions: 2 µM
[18] = The drug is tested on Z-020 corresponding to rabbit gut metagenome with ENA study accession number: PRJEB37062 and ENA sample accession number: ERS12561819 for biotransformation under anaerobic condition. The drug concentrations were measured over 9 timepoints collected between 0 and 24 hours of incubation by liquid-chromatography-coupled mass spectrometry (LC–MS); conditions: 2 µM
[19] = human gut metagenome, 24 h, 2 µM; remark: listed apart in the source
[20] = human gut metagenome, 24 h, 2 µM; remark: listed apart in the source
Also: call rule not given here.

| SMILES | Bacterial Biotransformation [1] | Bacterial Biotransformation [2] | Bacterial Biotransformation [3] | Bacterial Biotransformation [4] | Bacterial Biotransformation [5] | Bacterial Biotransformation [6] | Bacterial Biotransformation [7] | Bacterial Biotransformation [8] | Bacterial Biotransformation [9] | Bacterial Biotransformation [10] | Bacterial Biotransformation [11] | Bacterial Biotransformation [12] | Bacterial Biotransformation [13] | Bacterial Biotransformation [14] | Bacterial Biotransformation [15] | Bacterial Biotransformation [16] | Bacterial Biotransformation [17] | Bacterial Biotransformation [18] | Bacterial Biotransformation [19] | Bacterial Biotransformation [20] |
| --- | --- | --- | --- | --- | --- | --- | --- | --- | --- | --- | --- | --- | --- | --- | --- | --- | --- | --- | --- | --- |
| CCc1nn(CCCN2CCN(c3cccc(Cl)c3)CC2)c(=O)n1CCOc1ccccc1 [NEFAZODONE] | Compound NOT metabolized | Compound metabolized | Compound metabolized | Compound metabolized | Compound NOT metabolized | Compound metabolized | Compound metabolized | Compound NOT metabolized | Compound NOT metabolized | Compound metabolized | Compound NOT metabolized | Compound NOT metabolized | Compound NOT metabolized | Compound NOT metabolized | Compound NOT metabolized | Compound NOT metabolized | Compound NOT metabolized | Compound NOT metabolized | Compound metabolized | Compound metabolized |
| CN1CCOC(c2ccccc2)c2ccccc2C1 (stereo not given) [NEFOPAM] | Compound NOT metabolized | Compound NOT metabolized | Compound NOT metabolized | Compound NOT metabolized | Compound NOT metabolized | Compound metabolized | Compound metabolized | Compound NOT metabolized | Compound metabolized | Compound NOT metabolized | Compound metabolized | Compound metabolized | Compound NOT metabolized | Compound NOT metabolized | Compound NOT metabolized | Compound NOT metabolized | Compound NOT metabolized | Compound NOT metabolized | Compound metabolized | Compound metabolized |
| Cc1ccnc2c1NC(=O)c1cccnc1N2C1CC1 [NEVIRAPINE] | Compound NOT metabolized | Compound NOT metabolized | Compound NOT metabolized | Compound NOT metabolized | Compound NOT metabolized | Compound metabolized | Compound metabolized | Compound NOT metabolized | Compound NOT metabolized | Compound metabolized | Compound NOT metabolized | Compound metabolized | Compound metabolized | Compound NOT metabolized | Compound metabolized | Compound NOT metabolized | Compound NOT metabolized | Compound NOT metabolized | Compound metabolized | Compound metabolized |
| CO[C@]12C[C@@H](COC(=O)c3cncc(Br)c3)CN(C)[C@@H]1Cc1cn(C)c3cccc2c13 [NICERGOLINE] | Compound NOT metabolized | Compound NOT metabolized | Compound NOT metabolized | Compound NOT metabolized | Compound NOT metabolized | Compound NOT metabolized | Compound NOT metabolized | Compound metabolized | Compound NOT metabolized | Compound metabolized | Compound NOT metabolized | Compound metabolized | Compound metabolized | Compound NOT metabolized | Compound metabolized | Compound metabolized | Compound metabolized | Compound NOT metabolized | Compound NOT metabolized | Compound metabolized |
| COc1ccc2c(c1OC)C(=O)O[C@@H]2[C@H]1c2c(cc3c(c2OC)OCO3)CCN1C [NOSCAPINE] | Compound NOT metabolized | Compound metabolized | Compound NOT metabolized | Compound NOT metabolized | Compound NOT metabolized | Compound NOT metabolized | Compound NOT metabolized | Compound metabolized | Compound metabolized | Compound metabolized | Compound NOT metabolized | Compound metabolized | Compound metabolized | Compound NOT metabolized | Compound metabolized | Compound NOT metabolized | Compound NOT metabolized | Compound metabolized | Compound metabolized | Compound NOT metabolized |
| CCCc1nc(C(C)(C)O)c(C(=O)OCc2oc(=O)oc2C)n1Cc1ccc(-c2ccccc2-c2nnn[nH]2)cc1 [OLMESARTAN MEDOXOMIL] | Compound metabolized | Compound metabolized | Compound metabolized | Compound NOT metabolized | Compound metabolized | Compound metabolized | Compound metabolized | Compound metabolized | Compound metabolized | Compound metabolized | Compound metabolized | Compound NOT metabolized | Compound metabolized | Compound NOT metabolized | Compound metabolized | Compound metabolized | Compound metabolized | Compound metabolized | Compound metabolized | Compound metabolized |
